Data: article PMC8752549, “Esc peptides as novel potentiators of defective cystic fibrosis transmembrane conductance regulator: an unprecedented property of antimicrobial peptides” (Cellular and Molecular Life Sciences: CMLS, 2021)
Where no end group is shown, it is not given here. [ ]: non-standard residue; d: D form.

Tests used:
[1] = system: null-FRT cells not expressing CFTR; experiment: Whole-cell patch-clamp, null-FRT cells; assay type: cell-based, Fischer rat; conditions: untransfected FRT, 20 µM FSK + 10 µM Esc peptides or GEN, n ≥ 3
Experimental: For whole-cell experiments the extracellular (bath) solution contained (in mM): 150 NaCl, 1 CaCl2, 1 MgCl2, 10 glucose, 10 mannitol, 10 Na-HEPES (pH 7.4). The pipette (intracellular) solution contained (in mM): 120 CsCl, 10 TEA-Cl, 0.5 EGTA, 1 MgCl2, 10 Cs-HEPES, 40 mannitol, 1 ATP. To activate CFTR, 20 µM FSK was added to the extracellular solution to phosphorylate the channel. In some samples the combination FSK + 50 µM GEN (positive control) as well as FSK + 10 µM peptides were added to the extracellular solution to test their potentiator activity.
For both patch configurations, the protocol to correlate current intensity and voltage for stimulation consisted of 500-ms voltage steps from -100 to + 100 mV or from -80 to + 120 mV in 20 mV increments, starting from a holding potential of -60 mV. The time-dependence of CFTR activation and inactivation was monitored by application of steps of 50 ms pulses to − 100, − 50, 0, 50 and 100 mV every 5 s from a holding potential of − 60 mV. The interval between steps was 4 s. Membrane currents were filtered at 1 kHz and digitized at 5 kHz by a low–pass 4–pole Bessel filter. […]
Whole-cell membrane currents were recorded in null FRT cells not expressing CFTR by using the same experimental solutions and stimulation protocols as described in the main text for F508del- FRT.

F508del-CFTR [2] = experiment: CFTR-mediated transepithelial conductance (TEER), F508del-FRT; assay type: cell-based; conditions: F508del-FRT pre-incubated 24 h with 1 µM VX-809; 10 µM peptide + 20 µM FSK, 10 min; inhibition with 30 µM PPQ102; n ≥ 6
Experimental: To evaluate CFTR activation, the same saline solution was used. Cells expressing F508del mutation were incubated with 1 µM VX-809 to favor the mutant protein rescue. After measurement of basal TEER, 20 µM FSK + 10 µM GEN as positive control, or FSK + peptides at the desired concentration were added on the epithelium apical side. Finally, 30 µM PPQ102 was added on the epithelium apical side to block CFTR, so to measure the own activity of CFTR. TEER measurement was performed at 37 °C after 10 min from the addition of each compound. From the values of TEER measured before and after CFTR inhibition, we calculated the CFTR-dependent TEER for each condition. All values of TEER were converted to transepithelial conductance (TEEC) using the formula TEEC = 1/TEER [67].

F508del-CFTR [3] = experiment: Inside-out patch-clamp (macro-patches), F508del-FRT cells; assay type: biochemical; conditions: 1 mM ATP + 125 nM PKA catalytic subunit + 10 µM peptide in intracellular bath, n ≥ 3
Experimental: Whole-cell and inside-out membrane currents were recorded in FRT cells stably expressing F508del CFTR after incubation with 1 µM of the corrector VX-809 for 24 h to increase mutated CFTR membrane expression.
For inside-out patch-clamp experiments, the pipette solution contained (in mM): 150 N-methyl-D-glucamine chloride (NMDG-Cl), 3 CaCl2, 2 MgCl2, 10 Na-Hepes (pH 7.3). The bath solution for these experiments contained (in mM): 150 NMDG-Cl, 2 MgCl2, 10 EGTA, 10 Na-Hepes, 1 ATP, which was supplemented with 125 nM catalytic subunit of PKA (Promega, […]) and peptides at 10 µM. Pipette electrical resistance for both whole-cell and inside-out experiments was 3–5 MΩ.
For both patch configurations, the protocol to correlate current intensity and voltage for stimulation consisted of 500-ms voltage steps from -100 to + 100 mV or from -80 to + 120 mV in 20 mV increments, starting from a holding potential of -60 mV. The time-dependence of CFTR activation and inactivation was monitored by application of steps of 50 ms pulses to − 100, − 50, 0, 50 and 100 mV every 5 s from a holding potential of − 60 mV. The interval between steps was 4 s. Membrane currents were filtered at 1 kHz and digitized at 5 kHz by a low–pass 4–pole Bessel filter.

wt-CFBE and F508del-CFBE = conditions: monolayers of wt-CFBE and F508del-CFBE; cited from earlier work
From the text: (§1) During the last years, several studies have been conducted to identify compounds with suitable antibacterial properties. Antimicrobial peptides (AMPs) are a promising and effective therapeutic resource. Indeed, they rapidly kill microbial pathogens by perturbing their plasma-membrane thus limiting the induction of bacterial resistance compared to conventional antibiotics. In our laboratory, we identified a frog-skin derived membrane-active cationic AMP, i.e., Esc(1–21) […]-NH2 [24], with biocidal activity against the planktonic and the biofilm forms of P ...

[4] = cited from earlier work
From the text: as §1

[5] = system: P. aeruginosa pulmonary infection; conditions: cited from earlier work
From the text: as §1

[6] = system: F508del-CFBE41o- and wt-CFBE41o- cells; assay type: cell-based
Experimental: (§2) To evaluate the lung epithelia integrity, FRT and CFBE41o- cells expressing mutated or functional CFTR were seeded on permeable supports (24 Millicell plates PSHT01QR1) and incubated for 24 h in their standard culture medium in the presence of peptides, at different concentration. DMSO, 0.1% v:v, final concentration) that was used to solubilize each compound was included as control. After 24 h, the medium was replaced with saline solution containing (in mM): 130 NaCl, 2.7 KCl, 1.5 KH2PO4, 1 CaCl2, 0.5 MgCl2, 10 glucose, 10 Na-Hepes (pH, 7.4). Saline solution was added to both apical and basolateral compartments of the permeable supports. Samples were incubated for 10 min at 37 °C and TEER was measured in basal conditions without CFTR activation, with the epithelial voltmeter (MILLICELL ERS-2, Millipore Burlington, MA).

[7] = system: F508del-FRT and wt-FRT cells; assay type: cell-based, Fischer rat
Experimental: as §2

[8] = ivacaftor-based treatment of patients; cited from earlier work
From the text: Many proof-of-concept studies have disclosed that chemically modified ATP analogs and small organic molecules (e.g., isoflavones) have good potentiation effect by enhancing CFTR channel gating. However, the expected unspecific binding of ATP analogs to other proteins implicated in physiological functions limits the development of these molecules to the clinic. Other compounds capable of improving the activity of mutant CFTR can promote its phosphorylation by inhibiting phosphodiesterase’s activity, to heighten the intracellular level of cAMP. Ivacaftor was the first CFTR potentiator approved f ...

O=c1c(-c2ccc(O)cc2)coc2cc(O)cc(O)c12 [GEN, genistein]
change of ion current [1]: no significant change

Gly-Ile-Phe-Ser-Lys-Leu-Ala-Gly-Lys-Lys-Ile-Lys-Asn- DLeu -Leu-Ile-DphosphoSer-Gly-Leu-Lys-Gly-NH2 [[DLeu^14, DphosphoSer^17]Esc, Esc analog with DLeu14 and D-phosphoSer at position 17]
CFTR-mediated conductance (ΔG) compared to FSK-treated samples (F508del-CFTR [2]): about twofold
current intensity at + 100 mV compared to control basal conditions (F508del-CFTR [3]): ~ 2.5 fold

GIFSKLAGKKIKN[dL]LI[dS]GLKG-NH2 [Esc(1–21)-1c, diastereomer of Esc(1–21) carrying D-Leu14 and D-Ser17]
CFTR-mediated conductance (ΔG) compared to FSK-treated samples (F508del-CFTR [2]): slightly more pronounced
promotion of re-epithelialization compared with Esc(1–21) (wt-CFBE and F508del-CFBE): more efficient
susceptibility to proteolytic degradation compared with Esc(1–21) [4]: less susceptible
toxicity or inflammatory side events [5]: without eliciting toxicity or inflammatory side events
effectiveness in contrasting P. aeruginosa pulmonary infection ([5]; mice): higher effectiveness than the all-L counterpart
change of TEER / transepithelial conductance (G) versus DMSO control [6]: do not alter
change of TEER / transepithelial conductance (G) versus DMSO control [7]: do not alter

CC(C)(C)c1cc(C(C)(C)C)c(NC(=O)c2c[nH]c3ccccc3c2=O)cc1O [VX-770, ivacaftor]
enhanced lung function [8]: 10%

Gly-Ile-Phe-Ser-Lys-Leu-Ala-Gly-Lys-Lys-Ile-Lys-Asn-Leu-Leu-Ile-Ser-Gly-Leu-Lys-Gly- NH2 [Esc(1–21)]
change of TEER / transepithelial conductance (G) versus DMSO control [6]: do not alter
change of TEER / transepithelial conductance (G) versus DMSO control [7]: do not alter
